The supplement of paper PMC10307832

Tests used:
Assay in all cases: relative viability (nuclei count vs DMSO), 5 days (fraction); higher = more cells survive
[1] = test system: ABC-1
Method in brief: (§1)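 Lung cancer cell lines were pin-tool dosed in 1536-well plates on the day after seeding, with either a lone drug or a fixed anchor-drug dose plus five library-drug doses (not always all listed) in √10 steps. Nuclei were counted on 4× images after 5 days. Relative viability is the ratio of treated-well to vehicle-well nuclei counts, with each value a median of duplicate plates.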

[2] = test system: COR-L23
Method in brief: as §1

[3] = test system: ChaGo-K-1
Method in brief: as §1

[4] = test system: EMC-BAC-2
Method in brief: as §1

[5] = test system: HARA
Method in brief: as §1

[6] = test system: HCC-15
Method in brief: as §1

[7] = test system: HCC-366
Method in brief: as §1

[8] = test system: HCC-78
Method in brief: as §1

[9] = test system: LC-2-ad
Method in brief: as §1

[10] = test system: NCI-H1395
Method in brief: as §1

[11] = test system: NCI-H1793
Method in brief: as §1

[12] = test system: NCI-H1944
Method in brief: as §1

[13] = test system: NCI-H1993
Method in brief: as §1

[14] = test system: NCI-H2023
Method in brief: as §1

[15] = test system: NCI-H2126
Method in brief: as §1

[16] = test system: NCI-H23
Method in brief: as §1

[17] = test system: NCI-H2405
Method in brief: as §1

[18] = test system: NCI-H358
Method in brief: as §1

[19] = test system: NCI-H838
Method in brief: as §1

[20] = test system: SK-LU-1
Method in brief: as §1

With `CC(=O)O[C@@]12CO[C@@H]1C[C@H](O)[C@@]1(C)C(=O)[C@H](O)C3=C(C)[C@@H](OC(=O)[C@H](O)[C@@H](NC(=O)OC(C)(C)C)c4ccccc4)C[C@@](O)([C@@H](OC(=O)c4ccccc4)[C@H]21)C3(C)C` [Docetaxel] + Nc1ncn([C@H]2C[C@H](O)[C@@H](CO)O2)c(=O)n1 [Decitabine] (partner 2 µM) the relative viability ([1]; first compound 0.0002 µM) was 1.04, the relative viability ([1]; first compound 0.000632 µM) was 0.923 and the relative viability ([1]; first compound 0.002 µM) was 1.01. The relative viability ([1]; first compound 0.006325 µM) was 0.618, the relative viability ([1]; first compound 0.02 µM) was 0.416 and the relative viability ([2]; first compound 0.0002 µM) was 0.39. The relative viability ([2]; first compound 0.000632 µM) was 0.443, the relative viability ([2]; first compound 0.002 µM) was 0.291 and the relative viability ([2]; first compound 0.02 µM) was 0.121. It also gave a relative viability ([3]; first compound 0.0002 µM) of 0.461, a relative viability ([3]; first compound 0.000632 µM) of 0.548 and a relative viability ([3]; first compound 0.002 µM) of 0.381. The relative viability ([3]; first compound 0.006325 µM) was 0.276, the relative viability ([3]; first compound 0.02 µM) was 0.21 and the relative viability ([4]; first compound 0.0002 µM) was 0.947. For the same compound, the relative viability ([4]; first compound 0.000632 µM) was 0.811, the relative viability ([4]; first compound 0.002 µM) was 0.461 and the relative viability ([4]; first compound 0.006325 µM) was 0.46. It also gave a relative viability ([4]; first compound 0.02 µM) of 0.299, a relative viability ([5]; first compound 0.0002 µM) of 0.459 and a relative viability ([5]; first compound 0.000632 µM) of 0.314. It also gave a relative viability ([5]; first compound 0.002 µM) of 0.249, a relative viability ([5]; first compound 0.006325 µM) of 0.187 and a relative viability ([5]; first compound 0.02 µM) of 0.111. It also gave a relative viability ([6]; first compound 0.0002 µM) of 0.58, a relative viability ([6]; first compound 0.000632 µM) of 0.338 and a relative viability ([6]; first compound 0.002 µM) of 0.217. It also gave a relative viability ([6]; first compound 0.02 µM) of 0.191, a relative viability ([7]; first compound 0.0002 µM) of 0.292 and a relative viability ([7]; first compound 0.000632 µM) of 0.12. It also gave a relative viability ([7]; first compound 0.002 µM) of 0.107, a relative viability ([7]; first compound 0.006325 µM) of 0.0547 and a relative viability ([7]; first compound 0.02 µM) of 0.0292. It also gave a relative viability ([8]; first compound 0.0002 µM) of 0.627, a relative viability ([8]; first compound 0.000632 µM) of 0.654 and a relative viability ([8]; first compound 0.002 µM) of 0.458. It also gave a relative viability ([8]; first compound 0.006325 µM) of 0.511, a relative viability ([8]; first compound 0.02 µM) of 0.353 and a relative viability ([9]; first compound 0.0002 µM) of 0.769. For the same compound, the relative viability ([9]; first compound 0.000632 µM) was 0.714, the relative viability ([9]; first compound 0.002 µM) was 0.465 and the relative viability ([9]; first compound 0.006325 µM) was 0.323. For the same compound, the relative viability ([9]; first compound 0.02 µM) was 0.272, the relative viability ([10]; first compound 0.0002 µM) was 0.709 and the relative viability ([10]; first compound 0.000632 µM) was 0.731. The relative viability ([10]; first compound 0.002 µM) was 0.635, the relative viability ([10]; first compound 0.006325 µM) was 0.425 and the relative viability ([10]; first compound 0.02 µM) was 0.295. For the same compound, the relative viability ([11]; first compound 0.0002 µM) was 0.532, the relative viability ([11]; first compound 0.000632 µM) was 0.359 and the relative viability ([11]; first compound 0.002 µM) was 0.278. For the same compound, the relative viability ([11]; first compound 0.006325 µM) was 0.2, the relative viability ([11]; first compound 0.02 µM) was 0.18 and the relative viability ([12]; first compound 0.0002 µM) was 0.45. For the same compound, the relative viability ([12]; first compound 0.000632 µM) was 0.461, the relative viability ([12]; first compound 0.002 µM) was 0.406 and the relative viability ([12]; first compound 0.006325 µM) was 0.291. For the same compound, the relative viability ([12]; first compound 0.02 µM) was 0.139, the relative viability ([13]; first compound 0.0002 µM) was 0.608 and the relative viability ([13]; first compound 0.000632 µM) was 0.683. For the same compound, the relative viability ([13]; first compound 0.002 µM) was 0.646, the relative viability ([13]; first compound 0.006325 µM) was 0.585 and the relative viability ([13]; first compound 0.02 µM) was 0.354. It also gave a relative viability ([14]; first compound 0.0002 µM) of 0.233, a relative viability ([14]; first compound 0.000632 µM) of 0.161 and a relative viability ([14]; first compound 0.002 µM) of 0.102. For the same compound, the relative viability ([14]; first compound 0.006325 µM) was 0.0989, the relative viability ([14]; first compound 0.02 µM) was 0.0701 and the relative viability ([15]; first compound 0.0002 µM) was 0.622. For the same compound, the relative viability ([15]; first compound 0.000632 µM) was 0.548, the relative viability ([15]; first compound 0.002 µM) was 0.463 and the relative viability ([15]; first compound 0.006325 µM) was 0.387. For the same compound, the relative viability ([16]; first compound 0.0002 µM) was 0.33, the relative viability ([16]; first compound 0.000632 µM) was 0.303 and the relative viability ([16]; first compound 0.002 µM) was 0.253. For the same compound, the relative viability ([16]; first compound 0.006325 µM) was 0.256, the relative viability ([16]; first compound 0.02 µM) was 0.157 and the relative viability ([17]; first compound 0.0002 µM) was 0.724. It also gave a relative viability ([17]; first compound 0.000632 µM) of 0.75, a relative viability ([17]; first compound 0.002 µM) of 0.663 and a relative viability ([17]; first compound 0.006325 µM) of 0.498. The relative viability ([17]; first compound 0.02 µM) was 0.341, the relative viability ([18]; first compound 0.0002 µM) was 0.183 and the relative viability ([18]; first compound 0.000632 µM) was 0.189. For the same compound, the relative viability ([18]; first compound 0.002 µM) was 0.18, the relative viability ([18]; first compound 0.006325 µM) was 0.135 and the relative viability ([18]; first compound 0.02 µM) was 0.116. For the same compound, the relative viability ([19]; first compound 0.0002 µM) was 0.446, the relative viability ([19]; first compound 0.000632 µM) was 0.496 and the relative viability ([19]; first compound 0.002 µM) was 0.276. For the same compound, the relative viability ([19]; first compound 0.006325 µM) was 0.181, the relative viability ([19]; first compound 0.02 µM) was 0.159 and the relative viability ([20]; first compound 0.0002 µM) was 0.613. For the same compound, the relative viability ([20]; first compound 0.000632 µM) was 0.645, the relative viability ([20]; first compound 0.002 µM) was 0.524 and the relative viability ([20]; first compound 0.006325 µM) was 0.378. It also gave a relative viability ([20]; first compound 0.02 µM) of 0.269.
